Assay results reported in ChEMBL document CHEMBL4152334, “Synthesis, molecular docking and biological evaluation of novel phthaloyl derivatives of 3-amino-3-aryl propionic acids as inhibitors of Trypanosoma cruzi trans-sialidase” (2018).

Assays:
[1] = target: T1, Trans-sialidase (Trypanosoma cruzi) (UniProt Q26964); assay: Inhibition of Trypanosoma cruzi trans-sialidase at 1 mM assessed as reduction of 3'-sialyl-N-acetyllactosamine formation at 1 mM using N-acetyllactosamine as substrate and 3-sialyl-lactose as donor incubated for 15 mins by HPAEC-PAD relative to control
T1 sequence (whole entry): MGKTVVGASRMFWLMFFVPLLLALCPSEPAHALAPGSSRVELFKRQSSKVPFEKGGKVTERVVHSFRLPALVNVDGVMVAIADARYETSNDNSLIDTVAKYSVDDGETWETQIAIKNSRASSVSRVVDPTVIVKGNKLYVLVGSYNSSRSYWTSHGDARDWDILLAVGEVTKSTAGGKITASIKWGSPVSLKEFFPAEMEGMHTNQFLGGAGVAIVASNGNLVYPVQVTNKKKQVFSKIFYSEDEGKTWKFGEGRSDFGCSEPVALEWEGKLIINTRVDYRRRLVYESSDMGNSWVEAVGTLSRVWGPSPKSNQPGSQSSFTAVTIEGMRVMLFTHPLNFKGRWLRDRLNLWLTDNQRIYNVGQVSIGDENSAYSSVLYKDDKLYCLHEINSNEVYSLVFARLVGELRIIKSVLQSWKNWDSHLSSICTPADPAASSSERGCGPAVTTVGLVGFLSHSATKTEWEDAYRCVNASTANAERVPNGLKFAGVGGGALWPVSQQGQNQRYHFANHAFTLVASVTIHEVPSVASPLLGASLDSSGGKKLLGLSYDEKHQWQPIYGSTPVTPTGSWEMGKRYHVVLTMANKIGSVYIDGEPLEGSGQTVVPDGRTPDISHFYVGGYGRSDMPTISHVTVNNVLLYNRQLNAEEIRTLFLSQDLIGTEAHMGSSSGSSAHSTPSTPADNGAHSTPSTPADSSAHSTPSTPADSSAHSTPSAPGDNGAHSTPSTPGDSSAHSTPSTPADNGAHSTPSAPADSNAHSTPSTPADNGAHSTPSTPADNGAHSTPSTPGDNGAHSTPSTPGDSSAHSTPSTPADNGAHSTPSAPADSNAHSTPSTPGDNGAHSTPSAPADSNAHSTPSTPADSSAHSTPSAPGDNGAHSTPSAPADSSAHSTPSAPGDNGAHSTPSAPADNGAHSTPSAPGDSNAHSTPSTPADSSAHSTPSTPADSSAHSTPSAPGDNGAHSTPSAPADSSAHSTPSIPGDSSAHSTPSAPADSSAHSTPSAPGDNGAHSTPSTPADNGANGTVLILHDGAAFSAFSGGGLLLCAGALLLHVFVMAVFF

[2] = system: Trypanosoma cruzi; assay: Trypanocidal activity against trypomastigote stage of Trypanosoma cruzi NINOA infected in NIH mouse blood assessed as parasite lysis at 10 ug/ml after 24 hrs by optical microscopic method relative to control; format: functional
[3] = system: Trypanosoma cruzi; assay: Trypanocidal activity against trypomastigote stage of Trypanosoma cruzi NINOA infected in NIH mouse blood assessed as […] parasite lysis after 24 hrs by optical microscopic method; format: functional
[4] = system: Trypanosoma cruzi; assay: Trypanocidal activity against trypomastigote stage of Trypanosoma cruzi INC-5 infected in NIH mouse blood assessed as parasite lysis at 10 ug/ml after 24 hrs by optical microscopic method relative to control; format: functional
[5] = system: Trypanosoma cruzi; assay: Trypanocidal activity against trypomastigote stage of Trypanosoma cruzi INC-5 infected in NIH mouse blood assessed as parasite lysis after 24 hrs by optical microscopic method; format: functional; details: INC-5, Blood

Compound | inhibition [1] | Activity [2] | LC50 [3] | Activity [4] | LC50 [5]
NC(CC(=O)O)c1ccc(O)cc1 (stereo not given) | 1.4% | 50% | 152 µM | 76% | 127 µM
NC(CC(=O)O)c1ccco1 (stereo not given) | 11.9% | 53% | 99.1 µM | 50% | 229 µM
NC(CC(=O)O)c1ccc2ccccc2c1 (stereo not given) | 8.3% | 60% | 98.7 µM | 60% | 103 µM
O=C(O)CC(c1ccco1)N1C(=O)c2ccc(C(=O)O)cc2C1=O (stereo not given) | 19.2% | 77% | 77.6 µM | 55% | 102 µM
